# Test results as given in paper PMC8304783, “Antiadhesive Properties of Imidazolium Ionic Liquids Based on (−)-Menthol Against Candida spp” (International Journal of Molecular Sciences, 2021).
# Legend:
# Type in all cases: cell-based
# C. krusei [1] = experiment: Detachment of adherent cells from polystyrene (crystal violet); conditions: C. krusei on polystyrene, 2 h treatment; highest concentration (4 × MIC)
# Experimental: (§1) Thus, for the evaluation of ILs on fungal adhesion, higher concentrations were used, corresponding to 1, 2 and 4 times the MIC90 values (Figure 1).
# (§2) Figure 1 Detachment of adherent Candida spp. cells after 2 h incubation on polystyrene surfaces by ionic liquids (ILs) (A) or amphotericin B (AMB) (B) (means ± SD; n = 3). Results are presented as percentage of adherent cells relative to untreated controls (100% adhesion). Statistical analysis of detachment at each concentration was performed towards corresponding control experiments (fungi untreated by ILs or AMB = 100% adhesion) (*, p < 0.05 and **, p < 0.01).
# (§3) Post-adherence treatment with ILs was performed in a similar manner to that described previously by our team. Candida spp. suspensions were prepared by centrifuging YPD-grown cultures and resuspending fungal mass in PBS to an OD600 = 0.6. Sterile 96-well plates were inoculated with the prepared suspensions and incubated for 2 h at 37 °C to induce fungal adhesion. Afterwards, adherent cells were washed with PBS to remove planktonic cells and treated with ILs (concentrations equivalent to 1, 2 or 4 × MIC90 for each fungi) for 2 h at 37 °C. Then, each well was washed with PBS and adherent cells were fixed with 0.1% CV solution for 5 min, and washed with PBS. Cells were then treated with a solution of isopropanol 0.04 N HCL with 0.1% SDS to permeabilize adherent cells and release the CV dye. The absorbance of CV was measured at 590 nm (ASYS UVM 340 Biogenet). The percentage of cells that were removed was determined in comparison to adherent cells treated with PBS only (designated 100% adhesion).
# C. albicans [2] = experiment: as above; conditions: C. albicans on polystyrene, 2 h treatment; highest concentration (4 × MIC)
# Experimental: as §1, §2, §3
# C. glabrata [3] = experiment: as above; conditions: C. glabrata on polystyrene, 2 h treatment; highest concentration (4 × MIC)
# Experimental: as §1, §2, §3
# C. parapsilosis [4] = experiment: as above; conditions: C. parapsilosis on polystyrene, 2 h treatment; highest concentration (4 × MIC)
# Experimental: as §1, §2, §3
# sheep erythroid PMs = experiment: Hemolysis assay; conditions: AMB conc. 0.25 µM; sheep RBCs; 1% SDS = 100% hemolysis
# Experimental: To examine any possible toxic effect towards animal cells, ILs were tested for their lytic activity on sheep erythroid PMs, in comparison to AMB (Table 3). For this part of study, higher concentrations were selected, corresponding to MFC values of tested fungi (12.5; 25 and 50 µM in case of ILs, and 0.25; 0.5 and 1 µM in case of AMB, Table 1). The compounds were ranked in terms of hemolytic activity as follows: 1a > 1b > 2a. IL with alkoxymethyl chain (2a) produced <5% hemolysis, regardless of the concentration used. Compounds with alkyl substituents (1a and 1b) were more hemolytic in 12.5 than in 25 µM concentrations, and in the highest concentration (50 µM), both compounds produced >10% and >5% hemolysis, respectively.
# ILs were tested for hemolytic activity, as described previously. Briefly, 5 mL of fresh sheep blood was centrifuged (2000 rpm, 15 min), washed with PBS and resuspended in PBS to achieve hematocrit level of 50%. Red blood cells (RBCs) were treated with ILs (concentrations = 12.5, 25 and 50 µM) for 2 h at 37 °C. Afterwards, RBCs were centrifuged (2000 rpm, 5 min) and the absorbance of the supernatant was measured at 540 nm (ASYS UVM 340 Biogenet). The percentage of hemolysis was determined in comparison to the hemoglobin absorbance released by a 1% SDS solution (100% hemolysis).
# C. glabrata ATCC90030 = experiment: Minimal inhibitory and fungicidal concentrations (broth microdilution, CLSI M27-A3 modified); conditions: Nakaseomyces glabratus, 28 °C
# Experimental: (§4) Experiments were performed according to the Clinical and Laboratory Standards Institute (2008), 3rd ed. M27-A3 [51], with modifications described previously. Briefly, MICs were determined by serially diluting ILs in YPD medium in sterile 96-well plates (Sarstedt) and inoculating with fungal suspensions (final OD600 per well = 0.01). After incubation (48 h; 28 °C), the OD600 was measured (ASYS UVM 340 Biogenet). […] Each well was then replated on YPD agar and incubated for 5 days at 28 °C.
# C. albicans SC5314 = experiment: as above; conditions: Candida albicans, 28 °C
# Experimental: as §4
# C. krusei ATCC6258 = experiment: as above; conditions: Pichia kudriavzevii, 28 °C
# Experimental: as §4
# C. parapsilosis CBS10947 = experiment: as above; conditions: Lodderomyces parapsilosis, 28 °C
# Experimental: as §4
# C. krusei [5] = experiment: Plasma membrane permeabilization (propidium iodide staining); conditions: 2 h treatment at MIC90, PI staining, mean ± SD, n = 3
# Experimental: (§5) We tested ILs for their activity in permeabilizing fungi plasma membranes (PMs), by treating cells with concentrations of ILs corresponding to their MIC90 values (Table 2).
# (§6) The assessment of PM permeability was performed as described previously, with modifications. Briefly, 3 mL of Candida spp. cell suspensions (OD600 = 0.1) in PBS were mixed with ILs (concentrations equivalent to MIC90 against each fungi). Samples were incubated for 2 h at 37 °C, washed with PBS and stained with PI to the final dye concentration of 6 × 10^−6 M for 5 min. Then, cell suspensions were washed with PBS and observed under the Zeiss Axio Imager A2 microscope equipped with the Zeiss Axiocam 503 mono microscope camera and Zeiss HBO100 mercury lamp. The percentage of permeabilized cells was evaluated by counting PI positive cells out of one hundred in three independent repetitions for each experiment.
# C. albicans [6] = experiment: as above; conditions: 2 h treatment at MIC90, PI staining, mean ± SD, n = 3
# Experimental: as §5, §6
# C. glabrata [7] = experiment: as above; conditions: 2 h treatment at MIC90, PI staining, mean ± SD, n = 3
# Experimental: as §5, §6
# C. parapsilosis [8] = experiment: as above; conditions: 2 h treatment at MIC90, PI staining, mean ± SD, n = 3
# Experimental: as §5, §6
# [9] = 120 h, replated on YPD agar, 5 days, read-out: Minimal fungicidal concentration (MFC)
# [10] = ≥90% growth inhibition, 48 h, YPD, read-out: Minimal inhibitory concentration (MIC90)
smiles,measurement,setting,value
"C[C@@H]1[C@H](O)[C@@H](C)/C=C/C=C/C=C/C=C/C=C/C=C/C=C/[C@H](O[C@@H]2O[C@H](C)[C@@H](O)[C@H](N)[C@@H]2O)C[C@@H]2O[C@](O)(C[C@@H](O)C[C@@H](O)[C@H](O)CC[C@@H](O)C[C@@H](O)CC(=O)O[C@H]1C)C[C@H](O)[C@H]2C(=O)O [AMB, amphotericin B, reference compound]",Reduction of adhesion,C. krusei [1],~ 20%
same,Reduction of adhesion,C. albicans [2],~ 27%
same,Reduction of adhesion,C. glabrata [3],~ 15%
same,Reduction of adhesion,C. parapsilosis [4],~ 20%
same,Hemolytic activity,sheep erythroid PMs,86.7 ± 0.43 %
same,MFC,C. glabrata ATCC90030; [9],0.5 µM
same,MIC90,C. glabrata ATCC90030; [10],0.25 µM
same,MFC,C. albicans SC5314; [9],0.5 µM
same,MIC90,C. albicans SC5314; [10],0.25 µM
same,MFC,C. krusei ATCC6258; [9],1 µM
same,MIC90,C. krusei ATCC6258; [10],0.5 µM
same,MFC,C. parapsilosis CBS10947; [9],0.5 µM
same,MIC90,C. parapsilosis CBS10947; [10],0.25 µM
same,Percentage of cells with permeabilized PMs,C. krusei [5],38.2 ± 10.7 %
same,Percentage of cells with permeabilized PMs,C. albicans [6],37.3 ± 4.17 %
same,Percentage of cells with permeabilized PMs,C. glabrata [7],43.2 ± 2.15 %
same,Percentage of cells with permeabilized PMs,C. parapsilosis [8],32.38 ± 3.15 %
